Results taken from the supplement of paper PMC3937590.

Assays:
Experiment in all cases: -log10 GI50 (growth inhibition 50%) (-log10(M)); higher = more potent growth inhibition
HCC1937 = system: HCC1937
Procedure, shortened: (§1)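 Breast cancer cell lines were treated with each compound for 72 hours at nine doses in 1:5 serial dilution, in triplicate, and luminescence was read against a time-zero plate. A Gompertz curve was fitted to the dose-response data by nonlinear least squares to obtain GI50, the molar concentration giving the set level of growth inhibition, which is reported as its negative logarithm. The logarithm is base 10, and values equal to the top dose carry a < qualifier.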

HBL100 = system: HBL100
Procedure, shortened: as §1

ZR7530 = system: ZR7530
Procedure, shortened: as §1

MDAMB134VI = system: MDAMB134VI
Procedure, shortened: as §1

MCF10A = system: MCF10A
Procedure, shortened: as §1

T4 = system: T4
Procedure, shortened: as §1

T47D = system: T47D
Procedure, shortened: as §1

S1 = system: S1
Procedure, shortened: as §1

MDAMB468 = system: MDAMB468
Procedure, shortened: as §1

MDAMB175VII = system: MDAMB175VII
Procedure, shortened: as §1

MDAMB436 = system: MDAMB436
Procedure, shortened: as §1

BT483 = system: BT483
Procedure, shortened: as §1

UACC893 = system: UACC893
Procedure, shortened: as §1

SUM102PT = system: SUM102PT
Procedure, shortened: as §1

HCC202 = system: HCC202
Procedure, shortened: as §1

HCC1428 = system: HCC1428
Procedure, shortened: as §1

HCC1954 = system: HCC1954
Procedure, shortened: as §1

MX1 = system: MX1
Procedure, shortened: as §1

21NT = system: 21NT
Procedure, shortened: as §1

21MT1 = system: 21MT1
Procedure, shortened: as §1

Row | SMILES | -log10 GI50 (HCC1937) | -log10 GI50 (HBL100) | -log10 GI50 (ZR7530) | -log10 GI50 (MDAMB134VI) | -log10 GI50 (MCF10A) | -log10 GI50 (T4) | -log10 GI50 (T47D) | -log10 GI50 (S1) | -log10 GI50 (MDAMB468) | -log10 GI50 (MDAMB175VII) | -log10 GI50 (MDAMB436) | -log10 GI50 (BT483) | -log10 GI50 (UACC893) | -log10 GI50 (SUM102PT) | -log10 GI50 (HCC202) | -log10 GI50 (HCC1428) | -log10 GI50 (HCC1954) | -log10 GI50 (MX1) | -log10 GI50 (21NT) | -log10 GI50 (21MT1)
1 | N.N.[Cl][Pt][Cl] [Cisplatin] | 5.48 | 5.05 | 5.58 | 3.73 | 5.1 | 5.02 | 5.27 | 5.45 | 5.27 | 5.37 | 5 | 4.05 | 3.76 | < 3.3 | 6.06 | 4.33 | 5.29 | – | – | –
2 | CCN(CC)C(=S)SSC(=S)N(CC)CC [Disulfiram] | 6.89 | – | 7.05 | 5.88 | 4.93 | – | 7.01 | – | – | 7.02 | – | 4.18 | – | – | 4.84 | 4.97 | < 4.18 | 4.54 | 4.72 | < 4.18
3 | COc1cccc2c1C(=O)c1c(O)c3c(c(O)c1C2=O)C[C@@](O)(C(=O)CO)C[C@@H]3O[C@H]1C[C@H](N)[C@H](O)[C@H](C)O1 [Doxorubicin] | 6.49 | 7.37 | 6.96 | 5.95 | 6.79 | 6.9 | 7.37 | 6.09 | 6.13 | 6.48 | 6.29 | 7 | 6.14 | 6.61 | 6.61 | 5.92 | 6.74 | – | – | –
4 | COc1cc2ncnc(Nc3ccc(F)c(Cl)c3)c2cc1OCCCN1CCOCC1 [Gefitinib] | 5.08 | 4.94 | – | 4.72 | 6.17 | – | 4.8 | 6.57 | 4.72 | 6.55 | < 4.48 | 5.21 | 5.94 | 5.73 | 6.45 | 4.97 | 5.92 | – | – | –
5 | COC1=C2C[C@@H](C)C[C@H](OC)[C@H](O)[C@@H](C)/C=C(\C)[C@H](OC(N)=O)[C@@H](OC)/C=C\C=C(/C)C(=O)NC(=CC1=O)C2=O [Geldanamycin] | 7.49 | 7.6 | 8.15 | 7.8 | 8.23 | 8.22 | 7.62 | 8.82 | 7.74 | 7.75 | 7.15 | 6.84 | 8.14 | 8.48 | 8.4 | 7.55 | 8.14 | – | – | –
6 | COC(=O)Nc1nc2cc(C(=O)c3ccccc3)ccc2[nH]1 [Mebendazole] | 4.9 | – | 6.35 | – | 5.5 | – | 5.66 | – | – | 6.6 | – | 5.67 | – | – | 6.68 | < 4.18 | 6.82 | 6.42 | 6.08 | 4.74
7 | Cc1c(O)cccc1C(=O)N[C@@H](CSc1ccccc1)[C@H](O)CN1C[C@H]2CCCC[C@H]2C[C@H]1C(=O)NC(C)(C)C [Nelfinavir] | 5.15 | – | 5.74 | 5.06 | 4.9 | – | 4.88 | – | – | 5.15 | – | 5.01 | – | – | 5.34 | 5.16 | 5.01 | 5.15 | 4.57 | 4.87
8 | CC(=O)O[C@H]1C(=O)[C@@]2(C)[C@H]([C@H](OC(=O)c3ccccc3)[C@]3(O)C[C@H](OC(=O)[C@H](O)[C@@H](NC(=O)c4ccccc4)c4ccccc4)C(C)=C1C3(C)C)[C@]1(OC(C)=O)CO[C@@H]1C[C@@H]2O [Paclitaxel] | 7.81 | 8.35 | 7.66 | 7.99 | 8.03 | 8.04 | 8.02 | 7.84 | 8.06 | 7.74 | 7.65 | 7 | 7.93 | – | 8.1 | 7.58 | 8.15 | – | – | –
9 | CC[C@@]1(O)C(=O)OCc2c1cc1n(c2=O)Cc2cc3c(CN(C)C)c(O)ccc3nc2-1 [Topotecan] | – | 7.87 | – | 6.94 | 7.23 | – | – | 4.63 | 7.66 | 5.95 | 7.65 | 7.38 | 6.59 | 6.12 | 6.08 | 6.35 | 6.55 | – | – | –
